Several values for one entry are separate records, joined by “and”; a condition that tells them apart may be missing. Equal values may be shown once. Toxic doses and inconclusive results are not listed.
Tested on: P388 leukemia ip, CD2F1 mice, survival T/C
Assay: NCI In Vivo Anticancer Drug Screen. Data for tumor model P388 Leukemia (intraperitoneal) in CD2F1 (CDF1) mice
Conditions: endpoint: median survival time, higher = longer survival
Outline: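 Mice carrying the transplanted tumor received test compound or vehicle. Survival was recorded in each group, and the value is the treated-group measurement divided by that of the vehicle-treated control group.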

[1] = dose: 50.0 mg/kg/injection, schedule: Q01DX009 (ip), vehicle: Klucel (hydroxypropylcellulose) (HPC)
[2] = dose: 100.0 mg/kg/injection, schedule: Q01DX009 (ip), vehicle: Klucel (hydroxypropylcellulose) (HPC)
[3] = dose: 200.0 mg/kg/injection, schedule: Q01DX009 (ip), vehicle: Klucel (hydroxypropylcellulose) (HPC)
[4] = dose: 50.0 mg/kg/injection, schedule: Q01DX005 (ip), vehicle: Klucel (hydroxypropylcellulose) (HPC)
[5] = dose: 100.0 mg/kg/injection, schedule: Q01DX005 (ip), vehicle: Klucel (hydroxypropylcellulose) (HPC)
[6] = dose: 200.0 mg/kg/injection, schedule: Q01DX005 (ip), vehicle: Klucel (hydroxypropylcellulose) (HPC)
[7] = dose: 50.0 mg/kg/injection, schedule: Q01DX005 (ip), vehicle: saline with Tween-80
[8] = dose: 100.0 mg/kg/injection, schedule: Q01DX005 (ip), vehicle: saline with Tween-80
[9] = dose: 200.0 mg/kg/injection, schedule: Q01DX005 (ip), vehicle: saline with Tween-80
[10] = dose: 60.0 mg/kg/injection, schedule: Q01DX005 (ip), vehicle: saline with Tween-80
[11] = dose: 120.0 mg/kg/injection, schedule: Q01DX005 (ip), vehicle: saline with Tween-80
[12] = dose: 240.0 mg/kg/injection, schedule: Q01DX005 (ip), vehicle: saline with Tween-80
[13] = dose: 50.0 mg/kg/injection, schedule: Q01DX009 (ip), vehicle: saline

In the case of `CN1CCCC(OC(=O)Oc2ccccc2)C1` (stereo unspecified), the T/C (dose: 50.0 mg/kg/injection, schedule: Q01DX001 (ip), vehicle: other) is reported as 101 % of control, the T/C (dose: 100.0 mg/kg/injection, schedule: Q01DX001 (ip), vehicle: other) is reported as 100 % of control and the T/C (dose: 200.0 mg/kg/injection, schedule: Q01DX001 (ip), vehicle: other) is reported as 102 % of control. For the same compound, the T/C (dose: 400.0 mg/kg/injection, schedule: Q01DX001 (ip), vehicle: other) was 99 % of control.

`O=C1C2C3(CCl)C1C23CCl` (stereo unspecified) was tested, and the T/C (dose: 7.5 mg/kg/injection, schedule: Q01DX005 (ip), vehicle: Klucel (hydroxypropylcellulose) (HPC)) was 108 % of control, the T/C (dose: 15.0 mg/kg/injection, schedule: Q01DX005 (ip), vehicle: Klucel (hydroxypropylcellulose) (HPC)) was 104 % of control and the T/C (dose: 30.0 mg/kg/injection, schedule: Q01DX005 (ip), vehicle: Klucel (hydroxypropylcellulose) (HPC)) was 108 % of control.

In the case of `CN(C)c1cc(N(C)C)c2cc(-c3ccccc3)sc2n1`, the T/C [1] is reported as 98 % of control, the T/C [2] is reported as 103 % of control and the T/C [3] is reported as 96 % of control.

With `Nc1ccn([C@@H]2C=C(CO)[C@@H](O)[C@H]2O)c(=O)n1` the T/C (dose: 0.5 mg/kg/injection, schedule: Q01DX009 (ip), vehicle: saline) was 150 % of control, the T/C (dose: 1.0 mg/kg/injection, schedule: Q01DX009 (ip), vehicle: saline) was 188 % of control and the T/C (dose: 2.25 mg/kg/injection, schedule: Q01DX009 (ip), vehicle: saline) was 111 % of control and 87 % of control.

`CC(C)(C)OC(=O)NCS(=O)(=O)N(Cc1ccccc1)Cc1ccccc1` was tested, and the T/C [4] was 102 % of control, the T/C [5] was 101 % of control and the T/C [6] was 97 % of control.

For `CCC(c1ccc(O)cc1)c1cc2c(cc1OCCO)OCO2` (stereo unspecified), the T/C [7] was 95 % of control, the T/C [8] was 98 % of control and the T/C [9] was 95 % of control.

For `COc1cc2c(ccc3cc4cccc[n+]4cc32)c(Br)c1OC`, the T/C (dose: 12.5 mg/kg/injection, schedule: Q01DX009 (ip), vehicle: saline sonified) was 104 % of control, the T/C (dose: 25.0 mg/kg/injection, schedule: Q01DX009 (ip), vehicle: saline sonified) was 118 % of control and the T/C (dose: 50.0 mg/kg/injection, schedule: Q01DX009 (ip), vehicle: saline sonified) was 113 % of control.

With `O=S1(=O)CCN(C2CC2)CC1` the T/C (dose: 12.5 mg/kg/injection, schedule: Q01DX009 (ip), vehicle: Klucel (hydroxypropylcellulose) (HPC)) was 98 % of control, the T/C (dose: 25.0 mg/kg/injection, schedule: Q01DX009 (ip), vehicle: Klucel (hydroxypropylcellulose) (HPC)) was 100 % of control and the T/C [1] was 111 % of control.

In the case of `S=c1nc[nH]c2cc3cn[nH]c3cc12`, the T/C [7] is reported as 94 % of control, the T/C [8] is reported as 96 % of control and the T/C [9] is reported as 92 % of control.

With `CCC(C)NC1(N(C)C)N=C(N(C)C)N=C(N(C)C)O1` (stereo unspecified) the T/C (dose: 50.0 mg/kg/injection, schedule: Q01DX005 (ip), vehicle: saline) was 101 % of control and the T/C (dose: 100.0 mg/kg/injection, schedule: Q01DX005 (ip), vehicle: saline) was 99 % of control.

With `COC(=O)Nc1cn2c(n1)SCC2` the T/C [10] was 98 % of control, the T/C [11] was 95 % of control and the T/C [12] was 100 % of control.

In the case of `COC(=O)CC(O)(CCCC(C)(C)O)C(=O)OC1C(OC)=CC23CCCN2CCc2cc4c(cc2C13)OCO4` (stereo unspecified) (tested in a mixture with another compound), the T/C (dose: 0.5 mg/kg/injection, schedule: Q01DX009 (ip), vehicle: saline with Tween-80) is reported as 153 % of control, the T/C (dose: 1.0 mg/kg/injection, schedule: Q01DX009 (ip), vehicle: saline with Tween-80) is reported as 201 % of control and the T/C (dose: 2.0 mg/kg/injection, schedule: Q01DX009 (ip), vehicle: saline with Tween-80) is reported as 206 % of control.

For `COc1cc2c(cc1OC)C(C#N)(Cc1cccc3ccccc13)N(C(=O)c1ccccc1)C=C2` (stereo unspecified), the T/C [10] was 99 % of control, the T/C [11] was 101 % of control and the T/C [12] was 99 % of control.

With `COc1cc(C2CC(=O)N(c3ccc(C)cc3)C(=O)C2)cc(OC)c1OC` the T/C (dose: 25.0 mg/kg/injection, schedule: Q01DX005 (ip), vehicle: Klucel + Tween-80) was 98 % of control, the T/C (dose: 50.0 mg/kg/injection, schedule: Q01DX005 (ip), vehicle: Klucel + Tween-80) was 100 % of control and 105 % of control and 122 % of control and the T/C (dose: 50.0 mg/kg/injection, schedule: Q01DX009 (ip), vehicle: Klucel + Tween-80) was 108 % of control. For the same compound, the T/C (dose: 100.0 mg/kg/injection, schedule: Q01DX005 (ip), vehicle: Klucel + Tween-80) was 106 % of control and 110 % of control (2×), the T/C (dose: 114.0 mg/kg/injection, schedule: Q01DX009 (ip), vehicle: Klucel + Tween-80) was 117 % of control and the T/C (dose: 175.0 mg/kg/injection, schedule: Q01DX009 (ip), vehicle: Klucel + Tween-80) was 122 % of control. For the same compound, the T/C (dose: 200.0 mg/kg/injection, schedule: Q01DX005 (ip), vehicle: Klucel + Tween-80) was 110 % of control and 114 % of control and 122 % of control, the T/C (dose: 264.0 mg/kg/injection, schedule: Q01DX009 (ip), vehicle: Klucel + Tween-80) was 93 % of control and the T/C (dose: 400.0 mg/kg/injection, schedule: Q01DX009 (ip), vehicle: Klucel + Tween-80) was 92 % of control.

In the case of `CN1CCN(c2ccc3nc(-c4ccc5nc(-c6ccc(O)cc6)[nH]c5c4)[nH]c3c2)CC1`, the T/C [13] is reported as 153 % of control.

With `CCCn1c(=O)n(CC)c(=O)c2[nH]c(Cl)nc21` the T/C (dose: 16.0 mg/kg/injection, schedule: Q01DX009 (ip), vehicle: Klucel (hydroxypropylcellulose) (HPC)) was 100 % of control and 105 % of control, the T/C (dose: 32.0 mg/kg/injection, schedule: Q01DX009 (ip), vehicle: Klucel (hydroxypropylcellulose) (HPC)) was 102 % of control and 105 % of control and the T/C (dose: 64.0 mg/kg/injection, schedule: Q01DX009 (ip), vehicle: Klucel (hydroxypropylcellulose) (HPC)) was 108 % of control and 112 % of control.

For `NNC(=O)c1ccc2ccccc2c1O`, the T/C (dose: 25.0 mg/kg/injection, schedule: Q01DX009 (ip), vehicle: saline) was 103 % of control, the T/C [13] was 99 % of control and the T/C (dose: 100.0 mg/kg/injection, schedule: Q01DX009 (ip), vehicle: saline) was 101 % of control. The T/C (dose: 200.0 mg/kg/injection, schedule: Q01DX009 (ip), vehicle: saline) was 96 % of control.

`c1cc2c3c(cccc3c1)C(C1Cc3cccc4cccc1c34)C2` (stereo unspecified) was tested, and the T/C [1] was 97 % of control, the T/C [2] was 100 % of control and the T/C [3] was 88 % of control.

`CCCC[As](CCCC)SC1CCC2(C)C(=CCC3C4CCC(=O)C4(C)CCC32)C1` (stereo unspecified) was tested, and the T/C (dose: 12.5 mg/kg/injection, schedule: Q01DX009 (ip), vehicle: distilled water + Tween-80) was 98 % of control, the T/C (dose: 25.0 mg/kg/injection, schedule: Q01DX009 (ip), vehicle: distilled water + Tween-80) was 98 % of control and the T/C (dose: 50.0 mg/kg/injection, schedule: Q01DX009 (ip), vehicle: distilled water + Tween-80) was 92 % of control. The T/C (dose: 100.0 mg/kg/injection, schedule: Q01DX009 (ip), vehicle: distilled water + Tween-80) was 89 % of control and the T/C (dose: 200.0 mg/kg/injection, schedule: Q01DX009 (ip), vehicle: distilled water + Tween-80) was 107 % of control.

In the case of `O=C(Cc1cccs1)c1ccc(O)cc1`, the T/C [4] is reported as 99 % of control, the T/C [5] is reported as 102 % of control and the T/C [6] is reported as 105 % of control.

`CCCCCCCCCCCCCCCC(=O)OC12CC(C)C3(O)C(C=C(CO)CC4(O)C(=O)C(C)=CC43)C1C2(C)CO` (stereo unspecified) was tested, and the T/C (dose: 0.03 mg/kg/injection, schedule: Q01DX009 (ip), vehicle: saline with Tween-80) was 119 % of control, the T/C (dose: 0.06 mg/kg/injection, schedule: Q01DX009 (ip), vehicle: saline with Tween-80) was 100 % of control and the T/C (dose: 0.9 micrograms/kg/injection, schedule: Q01DX009 (ip), vehicle: other) was 100 % of control. For the same compound, the T/C (dose: 1.8 micrograms/kg/injection, schedule: Q01DX009 (ip), vehicle: other) was 99 % of control, the T/C (dose: 3.7 micrograms/kg/injection, schedule: Q01DX009 (ip), vehicle: other) was 101 % of control and the T/C (dose: 7.5 micrograms/kg/injection, schedule: Q01DX009 (ip), vehicle: other) was 101 % of control. For the same compound, the T/C (dose: 15.0 micrograms/kg/injection, schedule: Q01DX009 (ip), vehicle: other) was 104 % of control and the T/C (dose: 30.0 micrograms/kg/injection, schedule: Q01DX009 (ip), vehicle: other) was 104 % of control.

For `O=C1NC(=O)c2cc3ccccc3cc21`, the T/C [7] was 87 % of control, the T/C [8] was 87 % of control and the T/C [9] was 91 % of control.

`CCSc1nc2ccc(NCn3nnc4ccccc43)cc2s1` was tested, and the T/C (dose: 60.0 mg/kg/injection, schedule: Q01DX005 (ip), vehicle: Klucel (hydroxypropylcellulose) (HPC)) was 98 % of control, the T/C (dose: 120.0 mg/kg/injection, schedule: Q01DX005 (ip), vehicle: Klucel (hydroxypropylcellulose) (HPC)) was 89 % of control and the T/C (dose: 240.0 mg/kg/injection, schedule: Q01DX005 (ip), vehicle: Klucel (hydroxypropylcellulose) (HPC)) was 90 % of control.
